From PubChem BioAssay AID2060609 (Molecular Pharmacology Branch, DTP, NCI, 2025)

System: 855422-203-R-J1-PDC complex spheroids, viability
Test: Anticancer human tumor 855422-203-R-J1-PDC patient-derived bladder carcinoma cell line growth inhibition [CLK]
Details: for IC50: curve of first compound; for viability, T/C: stronger effect = lower value
How it was run: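 Patient-derived tumor cells grown as complex spheroids with HUVEC endothelial cells and mesenchymal stem cells, treated with drug combinations. Concentrations descend in half-log steps from near clinical Cmax, or from 10 microM if Cmax unknown.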

[1] = second compound 0.0316 µM, first compound 0.0316 µM
[2] = second compound 0.0316 µM, first compound 0.1 µM
[3] = second compound 0.0316 µM, first compound 0.316 µM
[4] = second compound 0.0316 µM, first compound 1 µM
[5] = second compound 0.0316 µM, first compound 3.16 µM
[6] = second compound 0.0316 µM, first compound 10 µM
[7] = second compound 0.1 µM, first compound 0.0316 µM
[8] = second compound 0.1 µM, first compound 0.1 µM
[9] = second compound 0.1 µM, first compound 0.316 µM
[10] = second compound 0.1 µM, first compound 1 µM
[11] = second compound 0.1 µM, first compound 3.16 µM
[12] = second compound 0.1 µM, first compound 10 µM
[13] = second compound 0.316 µM, first compound 0.0316 µM
[14] = second compound 0.316 µM, first compound 0.1 µM
[15] = second compound 0.316 µM, first compound 0.316 µM
[16] = second compound 0.316 µM, first compound 1 µM
[17] = second compound 0.316 µM, first compound 3.16 µM
[18] = second compound 0.316 µM, first compound 10 µM
[19] = second compound 1 µM, first compound 0.0316 µM
[20] = second compound 1 µM, first compound 0.1 µM
[21] = second compound 1 µM, first compound 0.316 µM
[22] = second compound 1 µM, first compound 1 µM
[23] = second compound 1 µM, first compound 3.16 µM
[24] = second compound 1 µM, first compound 10 µM
[25] = second compound 3.16 µM, first compound 0.0316 µM
[26] = second compound 3.16 µM, first compound 0.1 µM
[27] = second compound 3.16 µM, first compound 0.316 µM
[28] = second compound 3.16 µM, first compound 1 µM
[29] = second compound 3.16 µM, first compound 3.16 µM
[30] = second compound 3.16 µM, first compound 10 µM
[31] = second compound 10 µM, first compound 0.0316 µM
[32] = second compound 10 µM, first compound 0.1 µM
[33] = second compound 10 µM, first compound 0.316 µM
[34] = second compound 10 µM, first compound 1 µM
[35] = second compound 10 µM, first compound 3.16 µM
[36] = second compound 10 µM, first compound 10 µM
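Also: spheroids exposed to drugs for seven days before readout.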
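For viability, T/C in this document: 100% = DMSO vehicle control wells.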

Structure (SMILES): CC(=O)O[C@H]1C(=O)[C@@]2(C)[C@H]([C@H](OC(=O)c3ccccc3)[C@]3(O)C[C@H](OC(=O)[C@H](O)[C@@H](NC(=O)c4ccccc4)c4ccccc4)C(C)=C1C3(C)C)[C@]1(OC(C)=O)CO[C@@H]1C[C@@H]2O + CNC(=O)c1ccc(Nc2nc(OC3CCCC3)c3c(-c4ccc5nc(C)oc5c4)c[nH]c3n2)c(OC)c1
- IC50 (second compound 0.0316 µM): < 31.6 nM
- IC50 (second compound 0.1 µM): < 31.6 nM
- IC50 (second compound 0.316 µM): < 31.6 nM
- IC50 (second compound 1 µM): < 31.6 nM
- IC50 (second compound 3.16 µM): < 31.6 nM
- IC50 (second compound 10 µM): < 31.6 nM
- viability, T/C [1]: 8.98%
- viability, T/C [2]: 6.61%
- viability, T/C [3]: 7.27%
- viability, T/C [4]: 7.58%
- viability, T/C [5]: 8.71%
- viability, T/C [6]: 11.3%
- viability, T/C [7]: 16.5%
- viability, T/C [8]: 11.2%
- viability, T/C [9]: 13.8%
- viability, T/C [10]: 11.9%
- viability, T/C [11]: 15%
- viability, T/C [12]: 25.5%
- viability, T/C [13]: 30.5%
- viability, T/C [14]: 28.8%
- viability, T/C [15]: 29.2%
- viability, T/C [16]: 31.9%
- viability, T/C [17]: 34.4%
- viability, T/C [18]: 31.5%
- viability, T/C [19]: 32%
- viability, T/C [20]: 25.3%
- viability, T/C [21]: 28.1%
- viability, T/C [22]: 35.5%
- viability, T/C [23]: 36.5%
- viability, T/C [24]: 27%
- viability, T/C [25]: 28.6%
- viability, T/C [26]: 28.3%
- viability, T/C [27]: 21.7%
- viability, T/C [28]: 31.7%
- viability, T/C [29]: 31.8%
- viability, T/C [30]: 24.2%
- viability, T/C [31]: 23.4%
- viability, T/C [32]: 33.6%
- viability, T/C [33]: 25.5%
- viability, T/C [34]: 24.9%
- viability, T/C [35]: 31.4%
- viability, T/C [36]: 26.3%

Structure (SMILES): CCc1c2c(nc3ccc(O)cc13)-c1cc3c(c(=O)n1C2)COC(=O)[C@]3(O)CC + CNC(=O)c1ccc(Nc2nc(OC3CCCC3)c3c(-c4ccc5nc(C)oc5c4)c[nH]c3n2)c(OC)c1
- IC50 (second compound 0.0316 µM): 3.92 nM
- IC50 (second compound 0.1 µM): < 3.16 nM
- IC50 (second compound 0.316 µM): < 3.16 nM
- IC50 (second compound 1 µM): < 3.16 nM
- IC50 (second compound 3.16 µM): < 3.16 nM
- IC50 (second compound 10 µM): < 3.16 nM
- viability, T/C (second compound 0.0316 µM, first compound 0.00316 µM): 58.1%
- viability, T/C (second compound 0.0316 µM, first compound 0.01 µM): 14.6%
- viability, T/C [1]: 10.3%
- viability, T/C [2]: 4.46%
- viability, T/C [3]: 2.37%
- viability, T/C [4]: 2.42%
- viability, T/C (second compound 0.1 µM, first compound 0.00316 µM): 31.4%
- viability, T/C (second compound 0.1 µM, first compound 0.01 µM): 13.2%
- viability, T/C [7]: 8.17%
- viability, T/C [8]: 3.32%
- viability, T/C [9]: 2.65%
- viability, T/C [10]: 1.46%
- viability, T/C (second compound 0.316 µM, first compound 0.00316 µM): 18.2%
- viability, T/C (second compound 0.316 µM, first compound 0.01 µM): 11.9%
- viability, T/C [13]: 6.3%
- viability, T/C [14]: 3.66%
- viability, T/C [15]: 2.03%
- viability, T/C [16]: 3.09%
- viability, T/C (second compound 1 µM, first compound 0.00316 µM): 17.7%
- viability, T/C (second compound 1 µM, first compound 0.01 µM): 10.2%
- viability, T/C [19]: 7.3%
- viability, T/C [20]: 4.22%
- viability, T/C [21]: 2.1%
- viability, T/C [22]: 1.8%
- viability, T/C (second compound 3.16 µM, first compound 0.00316 µM): 17.8%
- viability, T/C (second compound 3.16 µM, first compound 0.01 µM): 12.4%
- viability, T/C [25]: 7.84%
- viability, T/C [26]: 3.73%
- viability, T/C [27]: 2.41%
- viability, T/C [28]: 1.27%
- viability, T/C (second compound 10 µM, first compound 0.00316 µM): 13.8%
- viability, T/C (second compound 10 µM, first compound 0.01 µM): 11.1%
- viability, T/C [31]: 7.08%
- viability, T/C [32]: 5.03%
- viability, T/C [33]: 3.52%
- viability, T/C [34]: 1.51%

Structure (SMILES): COc1cccc2c1C(=O)c1c(O)c3c(c(O)c1C2=O)CC(O)(C(=O)CO)CC3OC1CC(N)C(O)C(C)O1 (stereo unspecified) + CNC(=O)c1ccc(Nc2nc(OC3CCCC3)c3c(-c4ccc5nc(C)oc5c4)c[nH]c3n2)c(OC)c1
- IC50 (second compound 0.0316 µM): < 31.6 nM
- IC50 (second compound 0.1 µM): < 31.6 nM
- IC50 (second compound 0.316 µM): < 31.6 nM
- IC50 (second compound 1 µM): < 31.6 nM
- IC50 (second compound 3.16 µM): < 31.6 nM
- IC50 (second compound 10 µM): < 31.6 nM
- viability, T/C [1]: 10.3%
- viability, T/C [2]: 2.45%
- viability, T/C [3]: 0.72%
- viability, T/C [4]: 0.22%
- viability, T/C [5]: 0.45%
- viability, T/C [6]: 0.6%
- viability, T/C [7]: 11%
- viability, T/C [8]: 1.62%
- viability, T/C [9]: 1.02%
- viability, T/C [10]: 0.3%
- viability, T/C [11]: 0.4%
- viability, T/C [12]: 0.51%
- viability, T/C [13]: 9.64%
- viability, T/C [14]: 1.3%
- viability, T/C [15]: 0.46%
- viability, T/C [16]: 0.22%
- viability, T/C [17]: 0.45%
- viability, T/C [18]: 0.55%
- viability, T/C [19]: 7.4%
- viability, T/C [20]: 1.13%
- viability, T/C [21]: 0.24%
- viability, T/C [22]: 0.56%
- viability, T/C [23]: 0.58%
- viability, T/C [24]: 0.82%
- viability, T/C [25]: 9.03%
- viability, T/C [26]: 0.94%
- viability, T/C [27]: 0.2%
- viability, T/C [28]: 0.62%
- viability, T/C [29]: 0.98%
- viability, T/C [30]: 0.75%
- viability, T/C [31]: 6.1%
- viability, T/C [32]: 0.68%
- viability, T/C [33]: 0.35%
- viability, T/C [34]: 0.72%
- viability, T/C [35]: 0.63%
- viability, T/C [36]: 1.3%
